According to the supplement of paper PMC10307832:

What was measured:
Assay in all cases: relative viability (nuclei count vs DMSO), 5 days (fraction); higher = more cells survive
[1] = compound: CN(c1ncccc1CNc1nc(Nc2ccc3c(c2)CC(=O)N3)ncc1C(F)(F)F)S(C)(=O)=O + N=C(N)NC(=N)NCCc1ccccc1 [Phenformin] (partner 250 µM)
How it was run: (§1)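 Medians of duplicate plates are given as relative viability. That measure is the nuclei count in treated wells divided by the count in vehicle wells. Counts were taken on 4× images of lung cancer cell lines in 1536-well plates, 5 days after pin-tool dosing the day after seeding with one drug alone or a fixed anchor-drug dose plus five library-drug doses (not always all listed) in √10 steps.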

[2] = compound: CN(c1ncccc1CNc1nc(Nc2ccc3c(c2)CC(=O)N3)ncc1C(F)(F)F)S(C)(=O)=O + Cc1nc(Nc2ncc(C(=O)Nc3c(C)cccc3Cl)s2)cc(N2CCN(CCO)CC2)n1 [Dasatinib] (partner 0.075 µM)
How it was run: as §1

[3] = compound: CN(c1ncccc1CNc1nc(Nc2ccc3c(c2)CC(=O)N3)ncc1C(F)(F)F)S(C)(=O)=O + Cc1cc(Nc2cc(N3CCN(C)CC3)nc(Sc3ccc(NC(=O)C4CC4)cc3)n2)n[nH]1 [Tozasertib] (partner 0.1 µM)
How it was run: as §1

[4] = compound: CN(c1ncccc1CNc1nc(Nc2ccc3c(c2)CC(=O)N3)ncc1C(F)(F)F)S(C)(=O)=O + COc1cc2c(Oc3ccc(NC(=O)C4(C(=O)Nc5ccc(F)cc5)CC4)cc3F)ccnc2cc1OCCCN1CCOCC1 [Foretinib] (partner 0.25 µM)
How it was run: as §1

[5] = compound: CN(c1ncccc1CNc1nc(Nc2ccc3c(c2)CC(=O)N3)ncc1C(F)(F)F)S(C)(=O)=O + COc1cccc2cc(-c3nc([C@H]4CC[C@H](C(=O)O)CC4)n4ncnc(N)c34)[nH]c12 [OSI-027] (partner 0.5 µM)
How it was run: as §1

[6] = compound: CN(c1ncccc1CNc1nc(Nc2ccc3c(c2)CC(=O)N3)ncc1C(F)(F)F)S(C)(=O)=O + CCNC(=O)c1noc(-c2cc(C(C)C)c(O)cc2O)c1-c1ccc(CN2CCOCC2)cc1 [Luminespib] (partner 0.01 µM)
How it was run: as §1

[7] = compound: CN(c1ncccc1CNc1nc(Nc2ccc3c(c2)CC(=O)N3)ncc1C(F)(F)F)S(C)(=O)=O
How it was run: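 Lung cancer cell lines were seeded into 1536-well plates, kept overnight at 37 °C and pinned with five library-drug doses (not always all listed) spaced by √10. After 5 days, nuclei were Hoechst-stained, imaged at 4× and counted with MetaXpress. Viability is treated-well nuclei over vehicle-well nuclei, taken as a median across plates. Plates needed control CV below 25% and at least one doubling.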

## NCI-H1623
[1]; first compound 0.03162 µM
  relative viability: 0.571
[1]; first compound 0.1 µM
  relative viability: 0.626
[1]; first compound 0.3162 µM
  relative viability: 0.568
[1]; first compound 1 µM
  relative viability: 0.593
[2]; first compound 0.03162 µM
  relative viability: 0.514
[2]; first compound 0.1 µM
  relative viability: 0.623
[2]; first compound 0.3162 µM
  relative viability: 0.51
[2]; first compound 1 µM
  relative viability: 0.528
[3]; first compound 0.03162 µM
  relative viability: 0.452
[3]; first compound 0.1 µM
  relative viability: 0.383
[3]; first compound 0.3162 µM
  relative viability: 0.447
[3]; first compound 1 µM
  relative viability: 0.428
[4]; first compound 0.01 µM
  relative viability: 0.798
[4]; first compound 0.03162 µM
  relative viability: 0.905
[4]; first compound 0.1 µM
  relative viability: 0.974
[4]; first compound 0.3162 µM
  relative viability: 0.882
[4]; first compound 1 µM
  relative viability: 0.826
[5]; first compound 0.01 µM
  relative viability: 0.418
[5]; first compound 0.03162 µM
  relative viability: 0.423
[5]; first compound 0.1 µM
  relative viability: 0.428
[5]; first compound 0.3162 µM
  relative viability: 0.435
[5]; first compound 1 µM
  relative viability: 0.462
[6]; first compound 0.03162 µM
  relative viability: 0.59
[6]; first compound 0.1 µM
  relative viability: 0.503
[6]; first compound 0.3162 µM
  relative viability: 0.514
[6]; first compound 1 µM
  relative viability: 0.429
[7]; 0.01 µM
  relative viability: 0.733
[7]; 0.03162 µM
  relative viability: 1.07
[7]; 0.1 µM
  relative viability: 0.92
[7]; 0.3162 µM
  relative viability: 0.968
[7]; 1 µM
  relative viability: 0.963
